Test results from ChEMBL document CHEMBL4808252, “Identification of new [1,2,4]triazolo[4,3-a]quinoxalines as potent VEGFR-2 tyrosine kinase inhibitors: Design, synthesis, anticancer evaluation, and in silico studies” (Bioorg Med Chem, 2021).

How the values were obtained:
MCF7 = assay: Antiproliferative activity against human MCF7 cells assessed as cell growth inhibition incubated for 4 hrs by MTT assay; details: MCF7, 4 h
HepG2 [1] = assay: Antiproliferative activity against human HepG2 cells assessed as cell growth inhibition incubated for 4 hrs by MTT assay; details: HepG2, 4 h
HepG2 [2] = assay: Cell cycle arrest in human HepG2 cells assessed as accumulation at S phase at 5.4 uM incubated for 24 hrs by DNA flow cytometric assay (reference value: 19.52 +/- 1.55%); format: functional
HepG2 [3] = assay: Induction of apoptosis in human HepG2 cells assessed as early apoptotic cells at 5.4 uM incubated for 24 hrs by annexinV-FITC/propidium iodide staining based flow cytometry (reference value: 7.22 +/- 0.64 %); format: functional
HepG2 [4] = assay: Induction of apoptosis in human HepG2 cells assessed as necrotic cells at 5.4 uM incubated for 24 hrs by annexinV-FITC/propidium iodide staining based flow cytometry (reference value: 0.07 +/- 0.01 %); format: functional
Hepatocyte = assay: Cytotoxicity against rat hepatocytes assessed as reduction in cell growth for 4 hrs by MTT assay
HepG2 [5] = assay: Cell cycle arrest in human HepG2 cells assessed as accumulation at G2/M phase at 5.4 uM incubated for 24 hrs by DNA flow cytometric assay (reference value: 12.53 +/- 1.48%); format: functional
HepG2 [6] = assay: Cell cycle arrest in human HepG2 cells assessed as accumulation at sub G1 phase at 5.4 uM incubated for 24 hrs by DNA flow cytometric assay (reference value: 1.53 +/- 0.21%); format: functional
HepG2 [7] = assay: Induction of apoptosis in human HepG2 cells assessed as viable cells at 5.4 uM incubated for 24 hrs by annexinV-FITC/propidium iodide staining based flow cytometry (reference value: 92.54 +/- 1.64 %); format: functional; details: read-out: Activity
HepG2 [8] = assay: Induction of apoptosis in human HepG2 cells assessed as late apoptotic cells at 5.4 uM incubated for 24 hrs by annexinV-FITC/propidium iodide staining based flow cytometry (reference value: 0.13 +/- 0.01%); format: functional
HepG2 [9] = assay: Cell cycle arrest in human HepG2 cells assessed as accumulation at G1 phase at 5.4 uM incubated for 24 hrs by DNA flow cytometric assay (reference value: 66.40 +/- 3.21%); format: functional

IC50 (MCF7) [µM] | IC50 (HepG2 [1]) [µM] | Structure (SMILES) | also measured
57.1 | 41.9 | O=C(CSc1nc2ccccc2n2cnnc12)Nc1ccc(C(=O)NNC(=O)c2ccccc2)cc1 | 
10.3 | 6.5 | Cc1cccc(NC(=O)c2ccc(NC(=O)Cn3c(=O)c4nncn4c4ccccc43)cc2)c1 | 
31.1 | 19.7 | O=C(Cn1c(=O)c2nncn2c2ccccc21)Nc1ccc(C(=O)NNC(=O)c2ccc([N+](=O)[O-])cc2)cc1 | 
21.5 | 17.5 | Cc1cccc(C)c1NC(=O)c1ccc(NC(=O)Cn2c(=O)c3nncn3c3ccccc32)cc1 | 
9.7 | 7.9 | O=C(Cn1c(=O)c2nncn2c2ccccc21)Nc1ccc(C(=O)NCc2ccccc2)cc1 | 
51.6 | 42.5 | O=C(Cn1c(=O)c2nncn2c2ccccc21)Nc1ccc(C(=O)Nc2ccc([N+](=O)[O-])cc2)cc1 | 
69.2 | 64.8 | O=C(CSc1nc2ccccc2n2cnnc12)Nc1ccc(C(=O)NC2CCCCC2)cc1 | 
54.7 | 51.5 | O=C(CSc1nc2ccccc2n2cnnc12)Nc1ccc(C(=O)Nc2ccccn2)cc1 | 
12.2 | 8.3 | O=C(CSc1nc2ccccc2n2cnnc12)Nc1ccc(C(=O)Nc2ccc(Cl)cn2)cc1 | 
71.4 | 47.6 | O=C(Cn1c(=O)c2nncn2c2ccccc21)Nc1ccc(C(=O)Nc2ccc(Cl)cn2)cc1 | 
46.7 | 23.6 | Cc1cccc(NC(=O)c2ccc(NC(=O)CSc3nc4ccccc4n4cnnc34)cc2)c1 | 
68.7 | 54.2 | Cc1cccc(C)c1NC(=O)c1ccc(NC(=O)CSc2nc3ccccc3n3cnnc23)cc1 | 
59.3 | 37.8 | O=C(CSc1nc2ccccc2n2cnnc12)Nc1ccc(C(=O)NNc2ccccc2)cc1 | 
41.2 | 23.8 | O=C(Cn1c(=O)c2nncn2c2ccccc21)Nc1ccc(C(=O)NC2CCCCC2)cc1 | 
52.7 | 43.5 | O=C(CSc1nc2ccccc2n2cnnc12)Nc1ccc(C(=O)NCc2ccccc2)cc1 | 
61.3 | 42.7 | O=C(CSc1nc2ccccc2n2cnnc12)Nc1ccc(C(=O)Nc2ccc([N+](=O)[O-])cc2)cc1 | 
72.7 | 52.4 | O=C(CSc1nc2ccccc2n2cnnc12)Nc1ccc(C(=O)NNC(=O)c2ccc([N+](=O)[O-])cc2)cc1 | 
38.2 | 31.8 | Cc1ccccc1NC(=O)c1ccc(NC(=O)CSc2nc3ccccc3n3cnnc23)cc1 | 
8.2 | 5.4 | O=C(CSc1nc2ccccc2n2cnnc12)Nc1ccc(C(=O)Nc2ccccc2)cc1 | Activity (HepG2 [2]): 30.12%; Activity (HepG2 [3]): 30.27%; Activity (HepG2 [4]): 0.14%; IC50 (Hepatocyte): 31.3 µM; Activity (HepG2 [5]): 25.99%; Activity (HepG2 [6]): 1.32%; viability at 5.4 µM (HepG2 [7]): 69.4%; Activity (HepG2 [8]): 0.22%; Activity (HepG2 [9]): 42.55%
 | 2.17 | CNC(=O)c1cc(Oc2ccc(NC(=O)Nc3ccc(Cl)c(C(F)(F)F)c3)cc2)ccn1 [SORAFENIB] | IC50 (Hepatocyte): 16.6 µM
23.7 | 15.4 | O=C(Cn1c(=O)c2nncn2c2ccccc21)Nc1ccc(C(=O)NNC(=O)c2ccccc2)cc1 | 
68.3 | 57.5 | O=C(Cn1c(=O)c2nncn2c2ccccc21)Nc1ccc(C(=O)Nc2ccccc2)cc1 | 
